Measured values: patent US20240189242A1, “LIPID NANOPARTICLE COMPOSITIONS AND METHODS OF FORMULATING THE SAME” (MODERNATX, INC., priority 2021, published 2024)

Tests used:
Format in all cases: physicochemical
RNA [1] = test: percentage of IG in binary mixtures of RNA and ionizable lipid, ion pair reversed phase HPLC; conditions: for levels of IG: binary mixtures of RNA and Compound III with 1 mM agent, versus control; for initial rate of IG formation: Compound III binaries with 5 mM agent (FIG. 15)
Excerpt: To detect and quantify the amount of IG present in LNP formulations comprising polynucleotides and lipid, a protocol was developed (FIG. 2) that included (1) extraction of the polynucleotide molecules (e.g. precipitation, liquid:liquid extraction); (2) assessment of integrity (e.g. purity, length) of the isolated polynucleotides by known methods (e.g. fragment analyzer, gel electrophoresis); and (3) analysis of the isolated polynucleotides by HPLC.
(§1) RNA was extracted from the LNP formulation by precipitation in ammonium acetate in isopropanol; resuspended in water to target a final RNA concentration of 0.1 mg/mL; and assessed by fragment analyzer capillary electrophoresis and ion pair reversed phase HPLC (performed on a Thermo DNApac RP 100×2.1 mm column at 65° C., with mobile phases containing 50 mM dibutylammonium acetate and 100 mM triethylammonium acetate in water and acetonitrile). Elution with an acetonitrile gradient provided an RNA separation primarily driven by mRNA length and sensitive to any added hydrophobic elements. Two prominent peaks were apparent on the HPLC chromatogram (FIG. 2), including a “main peak” comprising non-adduct mRNA and an “IG” peak comprising mRNA with one or more covalent modifications. The mass fraction of RNA containing at least one lipid adduct was determined by integrating the area under the curve (AUC) of all RNA peaks (including products shorter than the full-length product, the full-length product, and the hydrophobic modified RNA) and taking the late-eluting region as an area percent of the total peak area.
Compound III was dissolved in ethanol at a concentration of 4 mg/mL, and the RNA diluted in sodium acetate buffer pH 5.5; the RNA and lipids were then mixed in 25% ethanol. Samples were held at 25° C., and the RNA was periodically extracted by precipitation in isopropanol and analyzed by ion pair reversed phase (FIGS. 5 and 6A, data marked by *).

RNA [2] = test: percentage of IG in LNPs buffered with PBS or Tris, HPLC
Description: as §1
To determine if different buffering conditions confer reductions in the percentage of IG formed in binary mixtures of RNA and Compound III, binary mixtures were prepared with RNA and Compound III and buffered with PBS or Tris at and the percentage of IG in the resulting binary mixtures was quantified according to the protocol detailed in Example 1. In brief, a single batch of LNPs was split mid-process into four aliquots, two of which were prepared in a final buffer of 1×PBS and the other two of which were prepared in a final buffer of 100 mM Tris-HCl pH 7.4. […]
To determine if different buffering conditions confer reductions in the percentage of IG formed in binary mixtures of RNA and Compound VI, binary mixtures were prepared with RNA and Compound VI and buffered PBS or Tris at and the percentage of IG in the resulting binary mixtures was quantified according to the protocol detailed in Example 1.

RNA [3] = test: percentage of IG in binary mixtures of RNA and ionizable lipid, ion pair reversed phase HPLC

O=C(O)CCCC[C@@H]1CCSS1 (racemic) [lipoic acid]
levels of IG (RNA [1]; 25° C., after 18 hours): reduced levels of IG

CCCCCCCCCCCOC(=O)CCCCCN(CCO)CCCCCCCC(=O)OC(CCCCCCCC)CCCCCCCC [Compound III]
percentage of IG over time (RNA [2]; Compound III LNPs buffered with Tris and stored either at 5° C. or 20° C.): around 10% | percentage of IG, Tris versus PBS (RNA [2]; Compound III LNPs, 100 mM Tris-HCl pH 7.4 (5° C., −20° C.) versus 1×PBS (5° C.)): lower in binary mixtures buffered with Tris compared to binary mixtures buffered with PBS | percentage of IG over time (RNA [3]; binary mixtures with RNA): increased over time | IG (RNA [3]; control binary mixtures of RNA and Compound III (Example 5), after 0 days): ~10% | IG (RNA [3]; control binary mixtures of RNA and Compound III (Example 5), after 5 days): ~40% | IG (RNA [3]; control binary mixtures of RNA and Compound III (Example 5), after 25 days): ~45% | IG (RNA [3]; control binary mixtures of RNA and Compound III (Example 6), 25° C., after 1 day): ~15% | IG (RNA [3]; control binary mixtures of RNA and Compound III (Example 6), 25° C., after 7 days): ~40% | IG detected (RNA [3]; control binary mixtures of RNA and Compound III (Example 7), 25° C., after 18 hours): ~35% | IG detected (RNA [3]; control binary mixtures of RNA and Compound III, after 13 days of incubation at 25° C.): ~45% | percentage IG detected (RNA [3]; mRNA and Compound III treated with higher concentrations of sodium metabisulfite (KDS), removed by dialysis with 20 mM Tris, t=0 h and 24 hours): reduced when treated with higher concentrations | IG formation over time (RNA [1]; chromatographically purified Compound III (up to 99% purity, no detectable Compound III-N-oxide) and RNA): still formed IG over time | IG (RNA [1]; control binary mixtures of RNA and Compound III (Example 6), 25° C., after 3 days): ~35% | IG detected (RNA [1]; control binary mixtures of RNA and Compound III (Example 11), 25° C., after 18 hours): ~20%

CCCCCCCCCN(CCCCCCCCC)CCN(CCCCCCCCC)CC(=O)N1CCN(C(=O)CN(CCCCCCCCC)CCCCCCCCC)CC1 [Compound VI]
percentage of IG, Tris versus PBS (RNA [2]; Compound VI LNPs stored at 5° C., 20 mM Tris, 8% sucrose, pH 8 versus 1×PBS, pH 7.2): lower in binary mixtures buffered with Tris compared to binary mixtures buffered with PBS | IG (RNA [3]; control binary mixtures of RNA and Compound VI, after 1 day): ~55% | IG (RNA [3]; control binary mixtures of RNA and Compound VI, after 2 days): ~70% | IG (RNA [3]; control binary mixtures of RNA and Compound VI, after 13 days): ~80%

Clc1ccc(C(c2ccc(Cl)cc2)C(Cl)(Cl)Cl)cc1 [DDT, dichlorodiphenyltrichloroethane]
levels of IG (RNA [1]; 25° C., after 18 hours): reduced levels of IG

O[C@H](CS)[C@@H](O)CS [DTE, dithioerythritol]
levels of IG (RNA [1]; 25° C., after 18 hours): reduced levels of IG

O[C@H](CS)[C@H](O)CS [DTT, dithiothreitol]
levels of IG (RNA [1]; 25° C., after 18 hours): reduced levels of IG

CC(=O)N[C@@H](CS)C(=O)O [N-acetyl cysteine]
initial rate of IG formation (RNA [1]): effective at eliminating the fast initial rate of IG formation | levels of IG (RNA [1]; 25° C., after 18 hours): reduced levels of IG

O=C(O)CCP(CCC(=O)O)CCC(=O)O [TCEP, tris(2-carboxyethyl)phosphine]
levels of IG (RNA [1]; 25° C., after 18 hours): reduced levels of IG

NCCSSCCN [cystamine]
levels of IG (RNA [1]; 25° C., after 18 hours): reduced levels of IG

N[C@@H](CCC(=O)N[C@@H](CS)C(=O)NCC(=O)O)C(=O)O [glutathione]
levels of IG (RNA [1]; 25° C., after 18 hours): reduced levels of IG

N[C@@H](CCS)C(=O)O [homo cysteine, homocysteine]
levels of IG (RNA [1]; 25° C., after 18 hours): reduced levels of IG

O=S([O-])S(=O)(=O)[O-].[K+].[K+] [potassium metabisulfite]
initial rate of IG formation (RNA [1]): effective at eliminating the fast initial rate of IG formation | levels of IG (RNA [1]; 25° C., after 18 hours): reduced levels of IG

[BH4-].[Na+] [sodium borohydrate]
levels of IG (RNA [1]; 25° C., after 18 hours): reduced levels of IG

O=S([O-])S(=O)(=O)[O-].[Na+].[Na+] [sodium metabisulfite]
initial rate of IG formation (RNA [1]): effective at eliminating the fast initial rate of IG formation

O=C([O-])CS.[Na+] [sodium thioglycolate]
levels of IG (RNA [1]; 25° C., after 18 hours): reduced levels of IG

O=S([O-])([O-])=S.[Na+].[Na+] [sodium thiosulfate]
levels of IG (RNA [1]; 25° C., after 18 hours): reduced levels of IG
